Laboratory results as given in ChEMBL document CHEMBL4229341, “3-Hydroxy-1,5-dihydro-2H-pyrrol-2-ones as novel antibacterial scaffolds against methicillin-resistant Staphylococcus aureus” (2018).
Values after ≈ are worked out from the molar mass of the structure shown.

Assays:
Assay type in all cases: functional
Staphylococcus aureus [1] = assay: Antibacterial activity against methicillin resistant Staphylococcus aureus ATCC 33591 after 16 to 20 hrs by CLSI method
Bacillus cereus = assay: Antibacterial activity against Bacillus cereus
[2] = tested on: Staphylococcus epidermidis; assay: Antibacterial activity against methicillin resistant Staphylococcus epidermidis ATCC 51625 after 16 to 20 hrs by CLSI method
Staphylococcus aureus [3] = assay: Antibacterial activity against methicillin resistant Staphylococcus aureus ATCC 43300 after 16 to 20 hrs by CLSI method
Staphylococcus aureus [4] = assay: Antibacterial activity against methicillin resistant Staphylococcus aureus BAA-44 after 16 to 20 hrs by CLSI method
Staphylococcus aureus [5] = assay: Antibacterial activity against linezolid/methicillin resistant Staphylococcus aureus NR 45926 after 16 to 20 hrs by CLSI method
Staphylococcus aureus [6] = assay: Antibacterial activity against linezolid/methicillin resistant Staphylococcus aureus NR 45924 after 16 to 20 hrs by CLSI method
Staphylococcus aureus [7] = assay: Antibacterial activity against methicillin resistant Staphylococcus aureus NR 45913 after 16 to 20 hrs by CLSI method
Staphylococcus aureus [8] = assay: Antibacterial activity against methicillin resistant Staphylococcus aureus NR 45898 after 16 to 20 hrs by CLSI method
[9] = tested on: Staphylococcus epidermidis; assay: Antibacterial activity against methicillin resistant Staphylococcus epidermidis NR 46386 after 16 to 20 hrs by CLSI method
Staphylococcus aureus [10] = assay: Antibacterial activity against methicillin resistant Staphylococcus aureus BAA-1685 after 16 to 20 hrs by CLSI method
Staphylococcus aureus [11] = assay: Antibacterial activity against methicillin resistant Staphylococcus aureus NR 45906 after 16 to 20 hrs by CLSI method

## O=C1C(O)=C(c2ccccc2[N+](=O)[O-])C2CCCN12 (stereo not drawn)
Staphylococcus aureus [1]
  MIC: > 128 µg/mL

## O=C1C(O)=C(c2ccc(Br)cc2)C2CCCN12 (stereo not drawn)
Staphylococcus aureus [1]
  MIC: 128 µg/mL (≈ 435 µM)

## COC1=C(c2ccc(C(F)(F)F)cc2)C2CCCCN2C1=O (stereo not drawn)
Staphylococcus aureus [1]
  MIC: > 128 µg/mL

## COc1ccc(C2=C(O)C(=O)N3CCCCC23)cc1 (stereo not drawn)
Staphylococcus aureus [1]
  MIC: > 128 µg/mL

## O=C1C(O)=C(c2ccccc2)C2CCCCN12 (stereo not drawn)
Staphylococcus aureus [1]
  MIC: > 128 µg/mL

## CCCCCC1=C(O)C(=O)N2CCCC12 (stereo not drawn)
Staphylococcus aureus [1]
  MIC: > 128 µg/mL

## O=C1C(O)=C(c2ccccc2)C2CCCN12 (stereo not drawn)
Bacillus cereus
  MIC: 50 to 100 µg/mL (≈ 232 to 465 µM)
Staphylococcus aureus [1]
  MIC: > 128 µg/mL

## O=C1C(O)=C(c2cccs2)C2CCCN12 (stereo not drawn)
Staphylococcus aureus [1]
  MIC: > 128 µg/mL

## O=C1C(O)=C(c2ccc(C(F)(F)F)cc2)C2CCCCN12 (stereo not drawn)
Staphylococcus aureus [1]
  MIC: 32 µg/mL (≈ 108 µM)

## O=C1C(O)=C(c2ccc(O)cc2)C2CCCN12 (stereo not drawn)
Bacillus cereus
  MIC: 50 to 100 µg/mL (≈ 216 to 432 µM)
Staphylococcus aureus [1]
  MIC: > 128 µg/mL

## CCC1C(c2ccc(C(F)(F)F)cc2)=C(O)C(=O)N1C(C)c1ccccc1 (stereo not drawn)
Staphylococcus aureus [1]
  MIC: 32 µg/mL (≈ 85.2 µM)

## O=C1C(O)=C(c2ccc(Br)cc2)C2CCCCN12 (stereo not drawn)
Staphylococcus aureus [1]
  MIC: 32 µg/mL (≈ 104 µM)

## C=CCC1=C(O)C(=O)N2CCCC12 (stereo not drawn)
Staphylococcus aureus [1]
  MIC: > 128 µg/mL

## O=C1C(O)=C(c2ccc(C(F)(F)F)cc2)C2CCCN12 (stereo not drawn)
Staphylococcus aureus [1]
  MIC: 128 µg/mL (≈ 452 µM)

## O=C1C(O)=C(c2cccs2)C2CCCCN12 (stereo not drawn)
Staphylococcus aureus [1]
  MIC: 16 µg/mL (≈ 68 µM)

## COc1ccc(C2=C(O)C(=O)N3CCCC23)cc1 (stereo not drawn)
Staphylococcus aureus [1]
  MIC: > 128 µg/mL

## O=C1C(O)=C(c2ccc(F)cc2)C2CCCCN12 (racemic)
Staphylococcus aureus [1]
  MIC: > 128 µg/mL

## CCC1C(c2ccc(C(F)(F)F)cc2)=C(O)C(=O)N1C1CCCCC1 (racemic)
[2]
  MIC: 16 µg/mL (≈ 45.3 µM)
Staphylococcus aureus [3]
  MIC: 64 µg/mL (≈ 181 µM)
Staphylococcus aureus [4]
  MIC: 32 µg/mL (≈ 90.6 µM)
Staphylococcus aureus [5]
  MIC: 32 µg/mL (≈ 90.6 µM)
Staphylococcus aureus [6]
  MIC: 32 µg/mL (≈ 90.6 µM)
Staphylococcus aureus [7]
  MIC: 8 µg/mL (≈ 22.6 µM)
Staphylococcus aureus [8]
  MIC: 8 µg/mL (≈ 22.6 µM)
[9]
  MIC: 2 µg/mL (≈ 5.66 µM)
Staphylococcus aureus [10]
  MIC: 32 µg/mL (≈ 90.6 µM)
Staphylococcus aureus [11]
  MIC: 2 µg/mL (≈ 5.66 µM)
Staphylococcus aureus [1]
  MIC: 8 µg/mL (≈ 22.6 µM)

## CCC1C(c2ccc(C(F)(F)F)cc2)=C(O)C(=O)N1Cc1ccncc1 (racemic)
Staphylococcus aureus [1]
  MIC: 64 µg/mL (≈ 177 µM)

## CCCCCCN1C(=O)C(O)=C(c2ccc(C(F)(F)F)cc2)C1c1ccccc1 (racemic)
Staphylococcus aureus [1]
  MIC: 32 µg/mL (≈ 79.3 µM)

## O=C1C(O)=C(c2ccc(C(F)(F)F)cc2)C2CCCCCN12 (racemic)
Staphylococcus aureus [1]
  MIC: 32 µg/mL (≈ 103 µM)

## CCC1NC(=O)C(O)=C1c1ccc(C(F)(F)F)cc1 (racemic)
Staphylococcus aureus [1]
  MIC: 128 µg/mL (≈ 472 µM)

## CCC1C(c2ccc(C(F)(F)F)cc2)=C(O)C(=O)N1C (racemic)
Staphylococcus aureus [1]
  MIC: 64 µg/mL (≈ 224 µM)

## CCC1C(c2ccc(C(F)(F)F)cc2)=C(O)C(=O)N1CCCCO (racemic)
Staphylococcus aureus [1]
  MIC: > 128 µg/mL

## O=C1C(O)=C(c2ccc(F)cc2)C2CCCN12 (racemic)
Staphylococcus aureus [1]
  MIC: > 128 µg/mL

## O=C1C(O)=C(c2ccc(Cl)cc2)C2CCCCN12 (racemic)
Staphylococcus aureus [1]
  MIC: > 128 µg/mL

## CCC1C(c2ccc(C(F)(F)F)cc2)=C(O)C(=O)N1c1ccccc1 (racemic)
[2]
  MIC: 8 µg/mL (≈ 23 µM)
Staphylococcus aureus [3]
  MIC: 64 µg/mL (≈ 184 µM)
Staphylococcus aureus [4]
  MIC: 32 µg/mL (≈ 92.1 µM)
Staphylococcus aureus [5]
  MIC: 8 µg/mL (≈ 23 µM)
Staphylococcus aureus [6]
  MIC: 16 µg/mL (≈ 46.1 µM)
Staphylococcus aureus [7]
  MIC: 8 µg/mL (≈ 23 µM)
Staphylococcus aureus [8]
  MIC: 8 µg/mL (≈ 23 µM)
[9]
  MIC: 4 µg/mL (≈ 11.5 µM)
Staphylococcus aureus [10]
  MIC: 32 µg/mL (≈ 92.1 µM)
Staphylococcus aureus [11]
  MIC: 8 µg/mL (≈ 23 µM)
Staphylococcus aureus [1]
  MIC: 8 µg/mL (≈ 23 µM)

## CCC1C(c2ccc(C(F)(F)F)cc2)=C(O)C(=O)N1Cc1ccc(OC)cc1OC (racemic)
Staphylococcus aureus [1]
  MIC: 32 µg/mL (≈ 75.9 µM)

## CCC1C(c2ccc(C(F)(F)F)cc2)=C(O)C(=O)N1Cc1ccc(-c2ccccc2)cc1 (racemic)
Staphylococcus aureus [1]
  MIC: 64 µg/mL (≈ 146 µM)

## O=C1C(O)=C(c2ccc(Cl)cc2)C2CCCN12 (racemic)
Staphylococcus aureus [1]
  MIC: > 128 µg/mL

## CCCCCCN1C(=O)C(O)=C(c2ccc(C(F)(F)F)cc2)C1CCCC (racemic)
Staphylococcus aureus [1]
  MIC: 32 µg/mL (≈ 83.5 µM)

## CC1CCN2C(=O)C(O)=C(c3ccc(C(F)(F)F)cc3)C2C1 (racemic)
Staphylococcus aureus [1]
  MIC: 128 µg/mL (≈ 411 µM)

## Cc1ccc(C2=C(O)C(=O)N3CCCCC23)cc1 (racemic)
Staphylococcus aureus [1]
  MIC: > 128 µg/mL

## CCC1C(c2ccc(C(F)(F)F)cc2)=C(O)C(=O)N1CC(C)C (racemic)
Staphylococcus aureus [1]
  MIC: 16 µg/mL (≈ 48.9 µM)

## CCC1C(c2ccc(C(F)(F)F)cc2)=C(O)C(=O)N1Cc1ccccc1 (racemic)
[2]
  MIC: 8 µg/mL (≈ 22.1 µM)
Staphylococcus aureus [3]
  MIC: 32 µg/mL (≈ 88.6 µM)
Staphylococcus aureus [4]
  MIC: 64 µg/mL (≈ 177 µM)
Staphylococcus aureus [5]
  MIC: 16 µg/mL (≈ 44.3 µM)
Staphylococcus aureus [6]
  MIC: 32 µg/mL (≈ 88.6 µM)
Staphylococcus aureus [7]
  MIC: 16 µg/mL (≈ 44.3 µM)
Staphylococcus aureus [8]
  MIC: 16 µg/mL (≈ 44.3 µM)
[9]
  MIC: 8 µg/mL (≈ 22.1 µM)
Staphylococcus aureus [10]
  MIC: 32 µg/mL (≈ 88.6 µM)
Staphylococcus aureus [11]
  MIC: 8 µg/mL (≈ 22.1 µM)
Staphylococcus aureus [1]
  MIC: 8 µg/mL (≈ 22.1 µM)

## C=CCN1C(=O)C(O)=C(c2ccc(C(F)(F)F)cc2)C1CC (racemic)
Staphylococcus aureus [1]
  MIC: 32 µg/mL (≈ 103 µM)

## CCC1C(c2ccc(C(F)(F)F)cc2)=C(O)C(=O)N1Cc1ccc(C(F)(F)F)cc1 (racemic)
Staphylococcus aureus [1]
  MIC: 32 µg/mL (≈ 74.5 µM)

## CCCCCCN1C(=O)C(O)=C(c2ccc(C(F)(F)F)cc2)C1CCc1ccccc1 (racemic)
Staphylococcus aureus [1]
  MIC: 64 µg/mL (≈ 148 µM)

## C#CCN1C(=O)C(O)=C(c2ccc(C(F)(F)F)cc2)C1CC (racemic)
Staphylococcus aureus [1]
  MIC: 32 µg/mL (≈ 103 µM)

## Cc1ccc(C2=C(O)C(=O)N3CCCC23)cc1 (racemic)
Staphylococcus aureus [1]
  MIC: 128 µg/mL (≈ 558 µM)

## CCCCCCN1C(=O)C(O)=C(c2ccc(C(F)(F)F)cc2)C1CC (racemic)
[2]
  MIC: 4 µg/mL (≈ 11.3 µM)
Staphylococcus aureus [3]
  MIC: 64 µg/mL (≈ 180 µM)
Staphylococcus aureus [4]
  MIC: 64 µg/mL (≈ 180 µM)
Staphylococcus aureus [5]
  MIC: 32 µg/mL (≈ 90 µM)
Staphylococcus aureus [6]
  MIC: 64 µg/mL (≈ 180 µM)
Staphylococcus aureus [7]
  MIC: 32 µg/mL (≈ 90 µM)
Staphylococcus aureus [8]
  MIC: 32 µg/mL (≈ 90 µM)
[9]
  MIC: 8 µg/mL (≈ 22.5 µM)
Staphylococcus aureus [10]
  MIC: 64 µg/mL (≈ 180 µM)
Staphylococcus aureus [11]
  MIC: 4 µg/mL (≈ 11.3 µM)
Staphylococcus aureus [1]
  MIC: 2 µg/mL (≈ 5.63 µM)

## CC[C@H]1OC(=O)[C@H](C)[C@@H](O[C@H]2C[C@@](C)(OC)[C@@H](O)[C@H](C)O2)[C@H](C)[C@@H](O[C@@H]2O[C@H](C)C[C@H](N(C)C)[C@H]2O)[C@](C)(O)C[C@@H](C)C(=O)[C@H](C)[C@@H](O)[C@]1(C)O [ERYTHROMYCIN]
Staphylococcus aureus [5]
  MIC: 0.5 µg/mL (≈ 0.681 µM)
Staphylococcus aureus [6]
  MIC: 0.5 µg/mL (≈ 0.681 µM)

## CC(=O)NC[C@H]1CN(c2ccc(N3CCOCC3)c(F)c2)C(=O)O1 [LINEZOLID]
[2]
  MIC: 0.25 µg/mL (≈ 0.741 µM)
Staphylococcus aureus [3]
  MIC: 1 µg/mL (≈ 2.96 µM)
Staphylococcus aureus [4]
  MIC: 1 µg/mL (≈ 2.96 µM)
Staphylococcus aureus [7]
  MIC: 0.5 µg/mL (≈ 1.48 µM)
Staphylococcus aureus [8]
  MIC: 0.5 µg/mL (≈ 1.48 µM)
[9]
  MIC: 0.25 µg/mL (≈ 0.741 µM)
Staphylococcus aureus [10]
  MIC: 1 µg/mL (≈ 2.96 µM)
Staphylococcus aureus [1]
  MIC: 1 µg/mL (≈ 2.96 µM)
